Data on 29 compounds can be found in patent US20200317642A1, “AMINE-SUBSTITUTED HETEROCYCLIC COMPOUNDS AS EHMT2 INHIBITORS AND DERIVATIVES THEREOF” (Epizyme, Inc., priority 2017, published 2020).

In assay [1] the test system is H3K9me2 in MDA-MB-231 cells. The assay can be described thus: MDA-MB-231 H3K9me2 in-cell western assay (EHMT2 ICW). In kind it is cell-based. The following applies: Homo sapiens, Table 3, read-out: EHMT2 ICW (IC50 μM). An excerpt:
MDA-MB-231 cell line was purchased from ATCC (Manassas, Va., USA). RPMI/Glutamax medium, Penicillin-Streptomycin, Heat Inactivated Fetal Bovine Serum, and D-PBS were purchased from Life Technologies (Grand Island, N.Y., USA). Odyssey blocking buffer, 800 CW goat anti-mouse IgG (H+L) antibody, and Licor Odyssey Infrared Scanner were purchased from Licor Biosciences, Lincoln, Nebr., USA. H3K9me2 mouse monoclonal antibody (Cat #1220) was purchased from Abcam (Cambridge, Mass., USA). 16% Paraformaldehyde was purchased from Electron Microscopy Sciences, Hatfield, Pa., USA). MDA-MB-231 cells were maintained in complete growth medium (RPMI supplemented with 10% v/v heat inactivated fetal bovine serum) and cultured at 37° C. under 5% C02. UNC0638 was purchased from Sigma-Aldrich (St. Louis, Mo., USA).
General Procedure for MDA-MB-231 HEK9me2 in-Cell Western Assay.
Compound (100 nL) was added directly to 384-well cell plate. MDA-MB-231 cells (ATCC) were seeded in assay medium (RPMI/Glutamax supplemented with 10% v/v heat inactivated fetal bovine serum and 1% Penicillin/Streptomycin, Life Technologies) at a concentration of 3,000 cells per well to a Poly-D-Lysine coated 384-well cell culture plate with 50 μL per well. Plates were incubated at 37° C., 5% CO2 for 48 hours (BD Biosciences 356697). […] After the incubation, 50 μL per well of 8% paraformaldehyde (Electron Microscopy Sciences) in PBS was added to the plates and incubated at room temperature for 20 minutes. Plates were transferred to a Biotek 406 plate washer and washed 2 times with 100 μL per well of wash buffer (1×PBS containing 0.3% Triton X-100 (v/v)). Next, 60 μL per well of Odyssey blocking buffer (Licor Biosciences) was added to each plate and incubated for 1 hour at room temperature. Blocking buffer was removed and 20 μL of monoclonal primary antibody α-H3K9me2 (Abcam) diluted 1:800 in Odyssey buffer with 0.1% Tween 20 (v/v) were added and plates were incubated overnight (16 hours) at 4° C. Plates were washed 5 times with 100 μL per well of wash buffer. Next 20 μL per well of secondary antibody was added (1:500 800 CW donkey anti-mouse IgG (H+L) antibody (Licor Biosciences), 1:1000 DRAQ5 (Cell Signaling Technology) in Odyssey buffer with 0.1% Tween 20 (v/v)) and incubated for 1 hour at room temperature. The plates were washed 5 times with 100 μL per well wash buffer then 2 times with 100 μL per well of water. Plates were allowed to dry at room temperature then imaged on a Licor Odyssey Infrared Scanner (Licor Biosciences) which measured integrated intensity at 700 nm and 800 nm wavelengths. Both 700 and 800 channels were scanned.
First, the ratio for each well was determined by:
Each plate included fourteen control wells of DMSO only treatment (Minimum Inhibition) as well as fourteen control wells (background wells) for maximum inhibition treated with control compound UNC0638 (Background wells).
The average of the ratio values for each well was calculated and used to determine the percent inhibition for each test well in the plate. Control compound was serially diluted three-fold in DMSO for a total of 10 test concentrations beginning at 1 μM. Percent inhibition was calculated as: […]
IC50 curves were generated using triplicate wells per concentration of compound. The IC50 is the concentration of compound at which measured methylation is inhibited by 50% as interpolated from the dose response curves. IC50 values were calculated using a non-linear regression (variable slope-four parameter fit model) with by the following formula:
where Top is fixed at 100% and Bottom is fixed to 0%, [I]=concentration of inhibitor, IC50=half maximal inhibitory concentration and n=Hill Slope.

In a further assay the target is T1, EHMT1 (Homo sapiens, UniProt Q9H9B1).
T1 sequence (Q9H9B1 1-1298): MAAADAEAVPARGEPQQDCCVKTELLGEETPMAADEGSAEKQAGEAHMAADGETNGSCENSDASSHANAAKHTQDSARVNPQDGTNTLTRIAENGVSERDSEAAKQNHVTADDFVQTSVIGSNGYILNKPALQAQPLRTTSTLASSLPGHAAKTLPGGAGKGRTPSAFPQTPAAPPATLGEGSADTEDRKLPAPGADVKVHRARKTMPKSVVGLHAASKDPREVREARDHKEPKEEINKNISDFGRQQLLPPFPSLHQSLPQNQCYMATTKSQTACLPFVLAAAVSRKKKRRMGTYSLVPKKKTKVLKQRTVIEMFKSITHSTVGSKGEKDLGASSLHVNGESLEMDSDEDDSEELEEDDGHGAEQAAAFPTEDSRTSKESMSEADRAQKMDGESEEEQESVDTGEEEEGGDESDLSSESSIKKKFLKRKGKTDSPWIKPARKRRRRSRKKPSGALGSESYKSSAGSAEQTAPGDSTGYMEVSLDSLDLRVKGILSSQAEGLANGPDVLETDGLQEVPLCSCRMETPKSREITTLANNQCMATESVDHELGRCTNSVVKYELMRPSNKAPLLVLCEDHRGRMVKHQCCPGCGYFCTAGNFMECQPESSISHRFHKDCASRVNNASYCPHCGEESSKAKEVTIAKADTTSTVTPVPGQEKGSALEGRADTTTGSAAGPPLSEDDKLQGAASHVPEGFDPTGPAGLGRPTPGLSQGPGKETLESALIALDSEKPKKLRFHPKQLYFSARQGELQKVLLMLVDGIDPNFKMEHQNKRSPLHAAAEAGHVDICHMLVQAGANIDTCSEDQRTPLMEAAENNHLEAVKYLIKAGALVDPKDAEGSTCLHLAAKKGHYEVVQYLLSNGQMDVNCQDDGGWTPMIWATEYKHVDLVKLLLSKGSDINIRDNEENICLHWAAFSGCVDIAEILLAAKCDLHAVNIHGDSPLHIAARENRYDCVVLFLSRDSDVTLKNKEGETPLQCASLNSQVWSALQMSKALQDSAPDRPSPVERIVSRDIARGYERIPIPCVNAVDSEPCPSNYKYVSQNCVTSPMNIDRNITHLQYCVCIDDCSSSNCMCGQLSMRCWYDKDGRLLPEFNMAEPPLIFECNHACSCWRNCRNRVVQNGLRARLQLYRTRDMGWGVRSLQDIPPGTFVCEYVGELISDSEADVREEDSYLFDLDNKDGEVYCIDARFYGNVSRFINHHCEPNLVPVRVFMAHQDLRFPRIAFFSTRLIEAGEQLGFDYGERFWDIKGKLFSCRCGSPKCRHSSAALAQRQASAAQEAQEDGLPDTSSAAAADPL
The assay is described as follows: EHMT1 PEP enzyme assay. In kind it is biochemical. To be noted: Table 3; read-out: EHMT1 PEP (IC50 μM).

Each structure is given as a SMILES string.

Consider `CNc1cc(C)nc(Nc2ccc(Br)c(CNCCN3CCCC3)c2)n1` [Compound 1, 2-N-[4-bromo-3-([[2-(pyrrolidin-1-yl)ethyl]amino]methyl)phenyl]-4-N,6-dimethylpyrimidine-2,4-diamine], for which the IC50 (commonly the midpoint of a concentration-inhibition curve) in assay [1] is 1 to 10 µM; on EHMT1, below 0.1 µM.

In the case of `CNc1cc(C)nc(Nc2ccc(Cl)c(C(=O)NCC3COC3)c2)n1` [Compound 2, 2-chloro-5-[[4-methyl-6-(methylamino)pyrimidin-2-yl]amino]-N-(oxetan-3-ylmethyl)benzamide], the IC50 in assay [1] was above 10 µM; on EHMT1, 1 to 10 µM.

On to `CNc1cc(C)nc(Nc2ccc(Cl)c(C(=O)NCC3CCC3)c2)n1` [Compound 3], for which the IC50 in assay [1] was above 10 µM; on EHMT1 it was 0.1 to 1 µM.

Turning to `CNc1cc(C)nc(Nc2ccc(Cl)c(C(=O)NCC3CC3)c2)n1` [Compound 4], the IC50 is above 10 µM in assay [1] and 1 to 10 µM on EHMT1.

Consider `CNc1cc(C)nc(Nc2ccc(Cl)c(C(=O)Nc3cccnn3)c2)n1` [Compound 5], for which the values for the IC50 (in assay [1]; at EHMT1) were above 10 µM and 1 to 10 µM, respectively.

For `CNc1cc(C)nc(Nc2ccc(Cl)c(C(=O)Nc3ncco3)c2)n1` [Compound 6], the IC50 (in assay [1]; at EHMT1) was 1 to 10 µM throughout.

Regarding `CNc1cc(C)nc(Nc2ccc(Cl)c(C(=O)NCCN3CCCC3)c2)n1` [Compound 7], the IC50 in assay [1] is 1 to 10 µM; at EHMT1 it was below 0.1 µM.

As to `CNc1cc(C)nc(Nc2ccc(Cl)c(C(=O)NC3CCOCC3)c2)n1` [Compound 8], the IC50 (in assay [1]; on EHMT1) was above 10 µM throughout.

`CCCCNC(=O)c1cc(Nc2nc(C)cc(NC)n2)ccc1Cl` [Compound 9]: the figures for the IC50 (in assay [1]; at EHMT1) were 1 to 10 µM and 0.1 to 1 µM, respectively.

On to `CNc1cc(C)nc(Nc2ccc(Cl)c(C(=O)Nc3ccccc3)c2)n1` [Compound 10], for which the IC50 is above 10 µM in assay [1] and 1 to 10 µM at EHMT1.

Regarding `CNc1cc(C)nc(Nc2ccc(C3CC3)c(CNCCN3CCCC3)c2)n1` [Compound 11, 2-N-[4-cyclopropyl-3-([[2-(pyrrolidin-1-yl)ethyl]amino]methyl)phenyl]-4-N,6-dimethylpyrimidine-2,4-diamine], the IC50 in assay [1] is 1 to 10 µM; on EHMT1, below 0.1 µM.

In the case of `CNc1cc(C)nc(Nc2ccc(Cl)c(C(=O)Nc3cscn3)c2)n1` [Compound 13], the concentration for half-maximal inhibition (IC50) is 1 to 10 µM in assay [1] and 0.1 to 1 µM on EHMT1.

In the case of `CNc1cc(C)nc(Nc2ccc(Cl)c(C(=O)Nc3cocn3)c2)n1` [Compound 14, 2-chloro-5-[[4-methyl-6-(methylamino)pyrimidin-2-yl]amino]-N-(1,3-oxazol-4-yl)benzamide], the IC50 in assay [1] was above 10 µM; at EHMT1 it was 1 to 10 µM.

Regarding `CNc1cc(C)nc(Nc2ccc(Cl)c(C(=O)Nc3cn(C)cn3)c2)n1` [Compound 15], the IC50 (in assay [1]; on EHMT1) was above 10 µM each time.

For the compound `CNc1cc(C)nc(Nc2ccc(OC)c(C#CCN3CCNCC3)c2)n1` [Compound 28, 2-N-[4-methoxy-3-[3-(piperazin-1-yl)prop-1-yn-1-yl]phenyl]-4-N,6-dimethylpyrimidine-2,4-diamine], the IC50 in assay [1] is 1 to 10 µM; on EHMT1 it was below 0.1 µM.

Regarding `CNc1cc(C)nc(Nc2ccc(C)c(C(=O)Nc3cc(C#N)ccn3)c2)n1` [Compound 30], the IC50 in assay [1] is above 10 µM; on EHMT1 it was 1 to 10 µM.

Regarding `CNc1cc(C)nc(Nc2ccc(OC)c(CNCCN3CCC[C@H]3C)c2)n1` [Compound 31], the results for the IC50 (in assay [1]; on EHMT1) were 1 to 10 µM and below 0.1 µM, respectively.

On to `CNc1cc(C)nc(Nc2ccc(OC)c(CNCCN3CCC[C@@H]3C)c2)n1` [Compound 32], for which the IC50 in assay [1] lay within 1 to 10 µM; on EHMT1, 0.1 to 1 µM.

Consider `CNc1cc(C)nc(Nc2ccc(C)c(C(=O)Nc3ncn(C)n3)c2)n1` [Compound 33], for which the IC50 in assay [1] is above 10 µM; at EHMT1, 1 to 10 µM.

For `CNc1cc(C)nc(Nc2ccc(OC)c(CNCCN3CC(C)C3)c2)n1` [Compound 35], the IC50 (in assay [1]; at EHMT1) was above 10 µM throughout.

Regarding `CNc1cc(C)nc(Nc2ccc(C)c(C(=O)Nc3cn(C4CC4)cn3)c2)n1` [Compound 36], the IC50 (in assay [1]; on EHMT1) was above 10 µM throughout.

In the case of `CNc1cc(C)nc(Nc2ccc(C)c(C(=O)Nc3c[nH]cn3)c2)n1` [Compound 37], the IC50 in assay [1] is above 10 µM; on EHMT1, 1 to 10 µM.

For `CNc1cc(C)nc(Nc2ccc(OC)c(CNCCN3CC[C@@H](C)C3)c2)n1` [Compound 38], the figures for the IC50 (in assay [1]; at EHMT1) were above 10 µM and 0.1 to 1 µM, respectively.

As for `CNc1cc(C)nc(Nc2ccc(OC)c(CNCCN3CC[C@H](C)C3)c2)n1` [Compound 39], the figures for the IC50 (in assay [1]; at EHMT1) were 1 to 10 µM and 0.1 to 1 µM, respectively.

As for `CNc1cc(C)nc(Nc2ccc(OC)c(OC[C@H](O)CN3CCCCC3)c2)n1` [Compound 40], the IC50 (in assay [1]; at EHMT1) was above 10 µM throughout.

As for `CNc1cc(C)nc(Nc2ccc(OC)c(OC[C@H](O)CN3CC4(CC4)C3)c2)n1` [Compound 41], the IC50 (in assay [1]; on EHMT1) was above 10 µM each time.

On to `CNc1cc(C)nc(Nc2ccc(OC)c(CNC[C@@H](C)N3CCCC3)c2)n1` [Compound 42], for which the values for the IC50 (in assay [1]; on EHMT1) were 1 to 10 µM and 0.1 to 1 µM, respectively.

With `CNc1cc(C)nc(Nc2ccc(OC)c(CNC[C@H](C)N3CCCC3)c2)n1` [Compound 43], the IC50 (in assay [1]; at EHMT1) was above 10 µM each time.

Take `CNc1cc(C)nc(Nc2ccc(OC)c(C#CC[N+](C)(C)CCN)c2)n1` [Compound 45]: the IC50 (in assay [1]; on EHMT1) was above 10 µM each time.
